Experimental data: patent US20050042751A1, “Generation and use of new types of dendritic cells” (priority 2001, published 2005)

How the values were obtained:
Assay type in all cases: cell-based, human
[1] = test system: γδ T cells; experiment: TNF-α and IFN-γ production by γδ T cells (ELISA)
Method: γδ T cells (7.5 10^5 cells/500 μl) were either cultured in medium alone or stimulated with BrHpp (200 nM). After 48 h, culture supernatants were assayed by ELISA for TNF-α and IFN-γ levels.
For γδ T cell isolation, cells expressing γ-δ receptors on their membrane were positively selected using immunomagnetic depletion (Miltenyi Sanvertech, Belgium). Briefly, non-adherent PBMC containing 2 to 5% of γδ T cells were incubated with biotin-conjugated anti-γδ T cell receptor (TCR) antibodies for 15 min at 4° C., washed three times, and then incubated with immunomagnetic beads coated with streptavidin.
Cell culture conditions. γδ T cells (7.5 10^5 cells/500 μl) were cultured for 24 h in flat-bottomed 24-well plates in culture medium supplemented or not with BrHpp (200 nM). Autologous DC (10^6 cells/500 μl) were added to γδ T cell cultures for another 24 h and analyzed for the expression of surface markers and for their ability to release cytokines. In parallel, DC (10^6 cells/ml) were cultured for 24 h in 24-well plates either in medium alone, or in presence of BrHpp (100 nM). […] In parallel, DC and γδ T cells were cocultured in a transwell culture system (Costar, Belgium).
(§1) Determination of cytokine levels. TNF-α, IL-12 p-40 and IFN-γ levels in culture supernatants were determined by ELISA kits from Biosource. IL-12 p70 levels were measured using the Endogen Elisa kit (Endogen, Belgium).

[2] = test system: monocyte-derived DC; experiment: Phenotypic changes of DC upon coculture with γδ T cells (flow cytometry)
Method: DC cultures were cultured for 24 alone, in the presence of BrHpp (200 nM) only, or with γδ T cells activated by BrHpp as described in example 1. Neutralizing anti-TNF or anti-IFNγ Ab was added at a concentration of 20 and 15 μg/ml, respectively. The expression of HLA-DR, CD86, and CD83 on DC was measured by flow cytometry and expressed as means+/−SEM of mean fluorescence intensity in five independent experiments on different healty donors. • ^1 p<0.05 compared to DC cultured alone or with BrHpp only. • ^2 p<0.05 compared to DC cultured with activated γδ T cells in absence of mAb.
Purification of γδ T cells and DC generation. Peripheral blood mononuclear cells (PBMC) from healthy volunteers were isolated by density centrifugation of heparinized blood on Lymphoprep (Nycomed, Oslo, Norway), washed with HBSS, resuspended in culture medium and allowed to adhere In culture flasks for 2 h at 37° C. Non-adherent cells were removed and adherent monocytes were cultured during 6 days in presence of 500 U/ml granulocyte macrophage colony-stimulating factor (GM-CSF) (Leucomax, Schering-Plough Kenilworth, N.J.) and 800 U/ml of IL-4 (Cellgenix, Freiburg, Germany). The resulting cell preparation routinely contained >90% DC as assessed by morphology and FACS analysis.
(§2) Cell culture conditions. γδ T cells (7.5 10^5 cells/500 μl) were cultured for 24 h in flat-bottomed 24-well plates in culture medium supplemented or not with BrHpp (200 nM). Autologous DC (10^6 cells/500 μl) were added to γδ T cell cultures for another 24 h and analyzed for the expression of surface markers and for their ability to release cytokines. In parallel, DC (10^6 cells/ml) were cultured for 24 h in 24-well plates either in medium alone, or in presence of BrHpp (100 nM). In some experiments, anti-TNF-α (20 μg/ml) or anti-IFN-γ (15 μg/ml) neutralizing monoclonal antibody (mAb) or their isotypic control used at similar concentration (Biosource Fleurus, Belgium) were added to DC-γδ T cell cocultures. In parallel, DC and γδ T cells were cocultured in a transwell culture system (Costar, Belgium).
Immunophenotyping by flow cytometry. Monocyte-derived DC were stained using PE-labeled specific mAb HLA-DR, CD86, CD83 (Beckton-Dickinson, Mountain view, CA). FITC-conjugated anti-TCR γδ mAb (Becton-Dickinson, San Jose, Calif.) was used to assess γδ T cell purity and to exclude them in flow cytometry analysis of DC in DC-γδ T cell cocultures. Briefly, 5×10^5 cells were incubated with the relevant mAbs or their isotype-matched controls for 20 min at 4° C., washed and fluorescence intensity was analyzed using a FACS-Calibur (Becton-Dickinson).

[3] = test system: monocyte-derived DC; experiment: IL-12 production by DC in DC-γδ T cell cocultures (ELISA)
Method: FIG. 3: γδ T cells induce IL-12 production by DC. Monocyte-derived DC were cocultured alone or in the presence of BrHpp only or cocultured with unstimulated or BrHpp-activated γδ T in absence or presence of either anti-TNF-α, anti-IFN-γ neutralizing mAbs or both. After 24 h of culture, supernatants were assayed for IL12-p40 and p70 levels by ELISA. Results were expressed as mean±SEM of 6 independent experiments. • * p<0.05 compared to DC cultured in medium alone or containing BrHpp • ** p<0.05 compared to DC stimulated with BrHPP-activated γδ T cells in the absence of mAb.
as §2, §1

[4] = γδ T cells 7.5 10^5 cells/500 μl, BrHpp 200 nM, 48 h, culture supernatant, mean±SEM of 13 experiments
[5] = DC cultured 24 h with BrHpp (200 nM) only, mean+/-SEM, 5 experiments

CC(O)(CBr)CCOP(=O)(O)OP(=O)(O)O (centres unmarked) [BrHpp, bromohydrin pyrophosphate]
effect on IFN-γ secretion by γδ T cells ([1]; text statement on table 1): induced | effect on basal production of TNF-α by γδ T cells ([1]; text statement on table 1): further increased | IFN-γ [1, 4]: 452 ± 76^1 pg/ml | TNF-α [1, 4]: 17406 ± 1290^1 pg/ml | CD83 expression on DC (mean fluorescence intensity) [2, 5]: 69 +/− 14 | CD86 expression on DC (mean fluorescence intensity) [2, 5]: 308 +/− 205 | HLA DR expression on DC (mean fluorescence intensity) [2, 5]: 610 +/− 354 | effect of preactivation of γδT cells on upregulation of HLA-DR, CD86 and CD83 on DC ([2]; γδT cells preactivated with BrHpp versus not preactivated): did not result in a further increase | effect on IL-12 production by DC ([3]; DC cultured in absence of γδ T cells): no effect | induction of IL-12 (p70) synthesis ([3]; DC-γδ T cell coculture in the presence of BrHpp): detected | increase in IL-12 (p40) levels ([3]; DC-γδ T cell coculture in the presence of BrHpp versus without BrHpp): 3 fold
